Source: patent US20210069134A1 (priority 2019, published 2021)
“Also recorded” adds a separate entry of the source.

What was measured:
Format in all cases: in vivo, rat
Long Evans Hooded rats [1] = experiment: Elevated Plus Maze (EPM) test after developmental Pb^2+ exposure, acute i.p. drug; settings: for anxiolytic OTC ratio, sensitivity to drug / EPM track plot and group mean activity (10-min): 43 mg/kg i.p.
[2] = system: prelimbic (PrL), infralimbic (IL), orbital ventral frontal (OV), orbital ventro-lateral (OVL), and hippocampal (HP) brain regions; experiment: LC/MS GABA:Neurotransmitter and Taurine:Neurotransmitter ratios in brain sub-regions after the ASST; settings: male rats, OVL (all four brain regions), taurine co-treatment
Description: Immediately following the ASST, rats were deeply anesthetized using Isoflurane, then sacrificed, and their brains were extracted in cold physiological buffered saline (PBS) pH 7.4 in under 2-min. The rat whole brains were then transferred into a coronal sectioning steel brain matrix for 175-300 g rodents (Stoelting, Inc. Wood Dale, Ill.). […] The collected brain regions were stored at −80° C. until ready for subsequent neurochemical assessments.
The brain sub-regions were then manually homogenized with sterile glass homogenizers (i.e., total volume 3 mL) using a 10 mg/100 μL (1:10) dilution of 100% acetonitrile ([…]) (Sigma-Aldrich, St Louis, Mo.) as a miscible (i.e., fully dissolvable solution) with a dielectric constant to study the separation of chemicals by mass charge and polarity. Post homogenization, samples were sonicated for 30 sec with a pulse on:off time of 10 sec at an amplitude of 20%, then centrifuged at […] for 5-min at 4° C., and the supernatant collected and stored at −20° C. until ready for LC/MS. […] The mass/charge (m/z) values of neurotransmitters were monitored and peak heights were obtained to compare the amount of neurotransmitters within- and between-samples. The elution was performed with a flow rate of 0.2 mL/min and the neurotransmitters that were eluted from the column were detected in the positive ion mode. […]

Long Evans Hooded rats [3] = experiment: Attention Set-Shift Test (ASST) after developmental Pb^2+ exposure with taurine co-treatment; settings: for Pb^2+-induced frontoexecutive dysfunctions (ASST task performance), overall: both sexes, 150 ppm Pb^2+ + 0.05% Taurine co-treatment; for errors-to-criterion (ETC), odor (OD) and digging medium (MD) simple discrimination training / trials-to-criterion (TTC), odor (OD) and digging medium (MD) simple discrimination training: vs Control and Perinatal; for rate-of-learning cumulative record across ASST stages: 150 ppm Pb^2+ + Taurine 0.05%
[4] = female rats, 150 ppm Pb^2+ + 0.05% Taurine
[5] = female rats, 150 ppm Pb^2+ + 0.05% Taurine in drinking water to PND 22
[6] = female rats, 150 ppm Pb^2+ + 0.05% Taurine, most recovery at ED and ED-Rev
[7] = male rats, 150 ppm Pb^2+ + 0.05% Taurine
[8] = male rats, 150 ppm Pb^2+ + 0.05% Taurine in drinking water to PND 22
[9] = male rats, 150 ppm Pb^2+ + 0.05% Taurine in drinking water to PND 22, listed as taurine
[10] = male rats, 150 ppm Pb^2+ + 0.05% Taurine, listed as taurine

## NCCC(=O)O [TD-101, 3-aminopropanoic acid]
Long Evans Hooded rats [1]; control female rats
  anxiolytic OTC ratio, sensitivity to drug: most sensitive
Long Evans Hooded rats [1]; control male rats
  anxiolytic OTC ratio, sensitivity to drug: most sensitive

## NCS(=O)(=O)O [TD-102]
Long Evans Hooded rats [1]; Peri-22 1,000 ppm females
  anxiolytic OTC ratio, sensitivity to drug: sensitive
Long Evans Hooded rats [1]; Peri-22 1,000 ppm male rats
  anxiolytic OTC ratio, sensitivity to drug: only sensitive
Long Evans Hooded rats [1]; control male rats
  anxiolytic OTC ratio, sensitivity to drug: most sensitive

## Nc1ccccc1S(=O)(=O)O [TD-103, 2-aminobenzenesulfonic acid]
Long Evans Hooded rats [1]; control female rats
  anxiolytic OTC ratio, sensitivity to drug: most sensitive

## NCCS(=O)(=O)O [Taurine, 2-aminoethanesulfonic acid]
[2]
  Taurine:Dopamine levels: elevated
Long Evans Hooded rats [3]
  Pb^2+-induced frontoexecutive dysfunctions (ASST task performance), overall: recovered these frontoexecutive dysfunctions to levels equivalent to Control rats
Long Evans Hooded rats [3]; listed as taurine
  Pb^2+-induced frontoexecutive dysfunctions (ASST task performance), overall: effective in mitigating or at least reducing most; also recorded: sex-dependent recovery
Long Evans Hooded rats [3]; [4]
  ETC, reacquisition learning: no differences
  TTC, reacquisition learning: no differences
Long Evans Hooded rats [3]; [5]
  errors-to-criterion (ETC), OD and MD simple discrimination training: no differences
  trials-to-criterion (TTC), OD and MD simple discrimination training: no differences
Long Evans Hooded rats [3]; [6]
  ASST performance, ETC: recovered these deficits to performance levels comparative to Control males; also recorded: recovered ASST performance to rates comparable to Control female rats
  ASST performance, TTC: recovered these deficits to performance levels comparative to Control males; also recorded: recovered ASST performance to rates comparable to Control female rats
Long Evans Hooded rats [3]; [7]
  ETC, reacquisition learning (CD-Reacquisition and ID-Reacquisition): fewer ETC errors
  TTC, reacquisition learning (CD-Reacquisition and ID-Reacquisition): recovery from the TTC reacquisition learning impairment
Long Evans Hooded rats [3]; [8]
  errors-to-criterion (ETC), odor (OD) and digging medium (MD) simple discrimination training: significant difficulty in learning
  trials-to-criterion (TTC), odor (OD) and digging medium (MD) simple discrimination training: significant difficulty in learning
Long Evans Hooded rats [3]; [9]
  errors-to-criterion (ETC), odor (OD) and digging medium (MD) simple discrimination training: caused learning delays
  trials-to-criterion (TTC), odor (OD) and digging medium (MD) simple discrimination training: caused learning delays
Long Evans Hooded rats [3]; [10]
  ETC, reacquisition learning (CD-Reacquisition and ID-Reacquisition): recovered reacquisition learning performance deficits to rates comparable to Control male rats
  TTC, reacquisition learning (CD-Reacquisition and ID-Reacquisition): recovered reacquisition learning performance deficits to rates comparable to Control male rats
Long Evans Hooded rats [3]; male rats, 150 ppm Pb^2+ + 0.05% Taurine, most recovery at CD-Rev and ID
  ASST performance, ETC: recovered these deficits to performance levels comparative to Control males; also recorded: recovered ASST performance to rates comparable to Control male rats
Long Evans Hooded rats [3]; male rats, 150 ppm Pb^2+ + 0.05% Taurine, most recovery at CD-Rev, ID, ED
  ASST performance, TTC: recovered these deficits to performance levels comparative to Control males; also recorded: recovered ASST performance to rates comparable to Control male rats
Long Evans Hooded rats [3]; single representative female rat
  rate-of-learning cumulative record across ASST stages: quicker rate-of-learning with less sequential errors
Long Evans Hooded rats [3]; single representative female rat, listed as taurine
  rate-of-learning cumulative record across ASST stages: significant improvements
Long Evans Hooded rats [3]; single representative male rat
  rate-of-learning cumulative record across ASST stages: quicker rate-of-learning with less sequential errors
Long Evans Hooded rats [3]; single representative male rat, listed as taurine
  rate-of-learning cumulative record across ASST stages: significant improvements
Long Evans Hooded rats [1]; 43 mg/Kg i.p. 15-min prior to testing, PND 36-45, both genders
  Pb^2+-induced anxiogenic response in the EPM: ameliorated in a gender-specific manner
Long Evans Hooded rats [1]; Control (0 ppm) female rats
  EPM track plot and group mean activity (10-min): increased anxiolytic response
Long Evans Hooded rats [1]; Control (0 ppm) male rats
  EPM track plot and group mean activity (10-min): increased anxiolytic response
